In the experiment the target is T1, human LPA1 (Homo sapiens, UniProt Q92633).
T1 construct: the full-length cDNA for human LPA1 was obtained by PCR of the reverse transcription reaction; expressed in transfected cells
T1 sequence (Q92633 whole entry): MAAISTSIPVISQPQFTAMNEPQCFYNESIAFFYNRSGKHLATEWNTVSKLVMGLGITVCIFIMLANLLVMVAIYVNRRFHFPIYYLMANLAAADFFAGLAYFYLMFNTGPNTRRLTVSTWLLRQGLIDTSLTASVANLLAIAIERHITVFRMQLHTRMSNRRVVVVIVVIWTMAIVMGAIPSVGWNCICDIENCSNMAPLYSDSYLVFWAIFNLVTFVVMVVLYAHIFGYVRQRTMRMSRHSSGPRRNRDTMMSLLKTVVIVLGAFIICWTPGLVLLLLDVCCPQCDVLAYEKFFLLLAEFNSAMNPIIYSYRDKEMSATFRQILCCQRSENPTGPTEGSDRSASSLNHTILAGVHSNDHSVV
Put plainly: LPA1 calcium flux assay. The settings on record: human LPA1 expressing CHO cells, stimulated with 10 nM LPA; read-out: HLPA1 Ca Flux IC50. In kind it is cell-based. On the procedure: Establishment of a CHO Cell Line Stably Expressing Human LPA1
A 1.1 kb cDNA encoding the human LPA1 receptor was cloned from human lung.
Human lung RNA (Clontech Laboratories, Inc. USA) was reverse transcribed using the RETROscript kit (Ambion, Inc.) and the full-length cDNA for human LPA1 was obtained by PCR of the reverse transcription reaction. The nucleotide sequence of the cloned human LPA1 was determined by sequencing and confirmed to be identical to the published human LPA1 sequence (An et al. Biochem. Biophys. Res. Commun. 231:619 (1997). The cDNA was cloned into the pcDNA5/FRT expression plasmid and transfected in CHO cells using lipofectamine 2000 (Invitrogen Corp., USA). Clones stably expressing human LPA1 were selected using hygromycin and identified as cells that show Ca-influx in response to LPA.
LPA1 and LPA3 Calcium Flux Assays
Human LPA1 or LPA3 expressing CHO cells are seeded at 20,000-45,000 cells per well in a 96-well poly-D-lysine coated plate one or two days before the assay. Prior to the assay, the cells are washed once with PBS and then cultured in serum-free media overnight. On the day of the assay, a calcium indicator dye (Calcium 4, Molecular Devices) in assay buffer (HBSS with Ca^2+ and Mg^2+ and containing 20 mM Hepes and 0.3% fatty-acid free human serum albumin) is added to each well and incubation continued for 1 hour at 37° C. 10 μl of test compounds in 2.5% DMSO are added to the cells and incubation continued at room temperature for 30 minutes. Cells are the stimulated by the addition of 10 nM LPA and intracellular Ca^2+ measured using the Flexstation 3 (Molecular Devices). IC50s are determined using Graphpad prism analysis of drug titration curves.
(Calcium assays in cells follow changes in intracellular calcium, usually with a dye or a luminescent sensor.)
A word on the IC50: it is the concentration needed to halve the response being measured. For the compound `Cc1noc(-c2ccc(-c3ccc(C4(C(=O)O)CC4)cc3)cc2)c1C(O)c1nnc(Cc2cccc(C(F)(F)F)c2)o1` (stereo not drawn) [Compound 1-46, 1-[4′-(4-{Hydroxy-[5-(3-trifluoromethyl-benzyl)-[1,3,4]oxadiazol-2-yl]-methyl}-3-methyl-isoxazol-5-yl)-biphenyl-4-yl]-cyclopropanecarboxylic acid], the IC50 is 300 to 1000 nM.

Turning to `Cc1noc(-c2ccc(-c3ccc(C4(C(=O)O)CC4)cc3)cc2)c1C(NS(C)(=O)=O)c1cn(Cc2ccccc2)nn1` (stereo not drawn) [Compound 1-47, 1-(4′-{4-[(1-Benzyl-1H-[1,2,3]triazol-4-yl)-methanesulfonylamino-methyl]-3-methyl-isoxazol-5-yl}-biphenyl-4-yl)-cyclopropanecarboxylic acid], the IC50 was greater than 50000 nM.

As to `Cc1noc(-c2ccc(-c3ccc(CC(=O)O)cc3)cc2)c1C(O)c1cn(Cc2ccccc2)nn1` (stereo not drawn) [Compound 1-48, (4′-{4-[(1-Benzyl-1H-[1,2,3]triazol-4-yl)-hydroxy-methyl]-3-methyl-isoxazol-5-yl}-biphenyl-4-yl)-acetic acid], the IC50 is less than 300 nM. Next, `Cc1noc(-c2ccc(-c3ccc(CCC(=O)O)cc3)cc2)c1C(O)c1cn(Cc2ccccc2)nn1` (stereo not drawn) [Compound 1-49, 3-(4′-{4-[(1-Benzyl-1H-[1,2,3]triazol-4-yl)-hydroxy-methyl]-3-methyl-isoxazol-5-yl}-biphenyl-4-yl)-propionic acid]: less than 300 nM.

Take `Cc1noc(-c2ccc(-c3ccc(C4(C(=O)O)CC4)cc3)cc2)c1C(O)c1cn(Cc2cccc(C(F)(F)F)c2)nn1` (stereo not drawn) [Compound 1-50, 1-[4′-(4-{Hydroxy-[1-(3-trifluoromethyl-benzyl)-1H-[1,2,3]triazol-4-yl]-methyl}-3-methyl-isoxazol-5-yl)-biphenyl-4-yl]-cyclopropanecarboxylic acid]: the IC50 fell in the range of 1000 to 50000 nM. With `Cc1noc(-c2ccc(-c3ccc(CC(=O)O)cc3)cc2)c1C(O)c1cn(Cc2cccc(C(F)(F)F)c2)nn1` (stereo not drawn) [Compound 1-51, [4′-(4-{Hydroxy-[1-(3-trifluoromethyl-benzyl)-1H-[1,2,3]triazol-4-yl]-methyl}-3-methyl-isoxazol-5-yl)-biphenyl-4-yl]acetic acid], the IC50 was greater than 50000 nM. Next, `Cc1noc(-c2ccc(-c3ccc(CCC(=O)O)cc3)cc2)c1C(O)c1cn(Cc2cccc(C(F)(F)F)c2)nn1` (stereo not drawn) [Compound 1-52, 3-[4′-(4-{Hydroxy-[1-(3-trifluoromethyl-benzyl)-1H-[1,2,3]triazol-4-yl]-methyl}-3-methyl-isoxazol-5-yl)-biphenyl-4-yl]propionic acid]: 1000 to 50000 nM. As for `Cc1noc(-c2ccc(-c3ccc(C4(C(=O)O)CC4)cc3)cc2)c1C(O)c1cccc(-c2ccccc2)c1` (stereo not drawn) [Compound 1-53, 1-{4′-[4-(Biphenyl-3-yl-hydroxy-methyl)-3-methyl-isoxazol-5-yl]-biphenyl-4-yl}-cyclopropanecarboxylic acid], the figure is less than 300 nM; as for `Cc1noc(-c2ccc(-c3ccc(C4(C(=O)O)CC4)cc3)cc2)c1C(O)c1ccc(OCc2ccccc2)cc1` (stereo not drawn) [Compound 1-54, 1-(4′-{4-[(4-Benzyloxy-phenyl)-hydroxy-methyl]-3-methyl-isoxazol-5-yl}-biphenyl-4-yl)-cyclopropanecarboxylic acid], 1000 to 50000 nM; as for `Cc1noc(-c2ccc(-c3ccc(C4(C(=O)O)CC4)cc3)cc2)c1C(O)c1cn(C(C)c2ccccc2)nn1` (stereo not drawn) [Compound 1-55, 1-[4′-(4-{Hydroxy-[1-(1-phenyl-ethyl)-1H-[1,2,3]triazol-4-yl]-methyl}-3-methyl-isoxazol-5-yl)-biphenyl-4-yl]-cyclopropanecarboxylic acid], less than 300 nM. As for `Cc1noc(-c2ccc(-c3ccc(C4(C(=O)O)CC4)cc3)cc2)c1C(O)c1cn(Cc2ccccc2C(F)(F)F)nn1` (stereo not drawn) [Compound 1-56, 1-[4′-(4-{Hydroxy-[1-(2-trifluoromethyl-benzyl)-1H-[1,2,3]triazol-4-yl]-methyl}-3-methyl-isoxazol-5-yl)-biphenyl-4-yl]-cyclopropanecarboxylic acid], the figure is 1000 to 50000 nM. In the case of `Cc1noc(-c2ccc(-c3ccc(C4(C(=O)O)CC4)cc3)cc2)c1C(O)c1cn(Cc2cccc(Cl)c2)nn1` (stereo not drawn) [Compound 1-57, 1-[4′-(4-{[1-(3-Chloro-benzyl)-1H-[1,2,3]triazol-4-yl]-hydroxy-methyl}-3-methyl-isoxazol-5-yl)-biphenyl-4-yl]-cyclopropanecarboxylic acid], the IC50 is less than 300 nM. `Cc1noc(-c2ccc(-c3ccc(C4(C(=O)O)CC4)cc3)cc2)c1C(O)c1cccc(Cc2ccccc2)c1` (stereo not drawn) [Compound 1-58, 1-(4′-{4-[(3-Benzyl-phenyl)-hydroxy-methyl]-3-methyl-isoxazol-5-yl}-biphenyl-4-yl)-cyclopropanecarboxylic acid]: the IC50 was less than 300 nM. Take `Cc1noc(-c2ccc(-c3ccc(C4(C(=O)O)CC4)cc3)cc2)c1C(O)c1cncc(Cc2ccccc2)c1` (stereo not drawn) [Compound 1-59, 1-(4′-{4-[(5-Benzyl-pyridin-3-yl)-hydroxy-methyl]-3-methyl-isoxazol-5-yl}-biphenyl-4-yl)-cyclopropanecarboxylic acid]: the IC50 is less than 300 nM. As for `Cc1noc(-c2ccc(-c3ccc(C4(CC(=O)O)CC4)cc3)cc2)c1C(O)c1nnc(Cc2ccccc2)o1` (stereo not drawn) [Compound 1-60, [1-(4′-{4-[(5-Benzyl-[1,3,4]oxadiazol-2-yl)-hydroxy-methyl]-3-methyl-isoxazol-5-yl}-biphenyl-4-yl)-cyclopropyl]-acetic acid], the figure is less than 300 nM; as for `Cc1noc(-c2ccc(-c3ccc(C4(C(=O)O)CC4)cc3)cc2)c1C(O)c1cn(Cc2ccccc2Cl)nn1` (stereo not drawn) [Compound 1-61, 1-[4′-(4-{[1-(2-Chloro-benzyl)-1H-[1,2,3]triazol-4-yl]-hydroxy-methyl}-3-methyl-isoxazol-5-yl)-biphenyl-4-yl]-cyclopropanecarboxylic acid], less than 300 nM; as for `Cc1noc(-c2ccc(-c3ccc(C4(C(=O)O)CC4)cc3)cc2)c1C(O)c1cn(Cc2ccc(Cl)cc2)nn1` (stereo not drawn) [Compound 1-62, 1-[4′-(4-{[1-(4-Chloro-benzyl)-1H-[1,2,3]triazol-4-yl]-hydroxy-methyl}-3-methyl-isoxazol-5-yl)-biphenyl-4-yl]-cyclopropanecarboxylic acid], less than 300 nM. Next, `Cc1noc(-c2ccc(-c3ccc(C4(C(=O)O)CC4)cc3)cc2)c1[C@@H](O)c1cn(Cc2ccccc2Cl)nn1` [Compound 1-63, 1-[4′-(4-{(R)-[1-(2-Chloro-benzyl)-1H-[1,2,3]triazol-4-yl]-hydroxy-methyl}-3-methyl-isoxazol-5-yl)-biphenyl-4-yl]-cyclopropanecarboxylic acid]: less than 300 nM; `Cc1noc(-c2ccc(-c3ccc(C4(C(=O)O)CC4)cc3)cc2)c1C(O)c1cn(Cc2ccc(Cl)c(Cl)c2)nn1` (stereo not drawn) [Compound 1-64, 1-[4′-(4-{[1-(3,4-Dichloro-benzyl)-1H-[1,2,3]triazol-4-yl]-hydroxy-methyl}-3-methyl-isoxazol-5-yl)-biphenyl-4-yl]-cyclopropanecarboxylic acid]: less than 300 nM.

For `Cc1noc(-c2ccc(-c3ccc(CC(=O)O)cc3)cc2)c1C(O)c1cn(Cc2ccc(Cl)c(Cl)c2)nn1` (stereo not drawn) [Compound 1-65, [4′-(4-{[1-(3,4-Dichloro-benzyl)-1H-[1,2,3]triazol-4-yl]-hydroxy-methyl}-3-methyl-isoxazol-5-yl)-biphenyl-4-yl]-acetic acid], the IC50 fell in the range of 1000 to 50000 nM. Take `Cc1noc(-c2ccc(-c3ccc(C4(C(=O)O)CC4)cc3)cc2)c1[C@@H](O)c1cn([C@H](C)c2ccccc2)nn1` [Compound 1-67, 1-[4′-(4-{(R)-Hydroxy-[1-((R)-1-phenyl-ethyl)-1H-[1,2,3]triazol-4-yl]-methyl}-3-methyl-isoxazol-5-yl)-biphenyl-4-yl]-cyclopropanecarboxylic acid]: the IC50 is less than 300 nM. For `Cc1noc(-c2ccc(-c3ccc(C4(C(=O)O)CC4)cc3)cc2)c1Nc1cccc(-c2ccccc2)n1` [Compound 1-68, 1-{4′-[3-Methyl-4-(6-phenyl-pyridin-2-ylamino)-isoxazol-5-yl]-biphenyl-4-yl}-cyclopropanecarboxylic acid], the 50% inhibitory concentration (IC50) is less than 300 nM. Next, `Cc1noc(-c2ccc(-c3ccc(C4(C(=O)O)CC4)cc3)cc2)c1C(O)c1cccc(Cc2ccccc2)n1` (stereo not drawn) [Compound 1-69, 1-(4′-{4-[(6-Benzyl-pyridin-2-yl)-hydroxy-methyl]-3-methyl-isoxazol-5-yl}-biphenyl-4-yl)-cyclopropanecarboxylic acid]: less than 300 nM; `Cc1ccccc1Cn1cc(C(O)c2c(C)noc2-c2ccc(-c3ccc(C4(C(=O)O)CC4)cc3)cc2)nn1` (stereo not drawn) [Compound 1-70, 1-[4′-(4-{Hydroxy-[1-(2-methyl-benzyl)-1H-[1,2,3]triazol-4-yl]-methyl}-3-methyl-isoxazol-5-yl)-biphenyl-4-yl]-cyclopropanecarboxylic acid]: less than 300 nM.

(Values after US8664220B2, “Polycyclic compounds as lysophosphatidic acid receptor antagonists” (Amira Pharmaceuticals, Inc., priority 2009, dated 2014).)
